# Source: ChEMBL document CHEMBL5260845, “Flavone-based arylamides as potential anticancers: Design, synthesis and in vitro cell-based/cell-free evaluations” (2020)
# Active and inactive are the calls of the source. The rule behind the calls is not given here.
# Experiments:
# CCRF-CEM = assay: Antiproliferative activity against human CCRF-CEM cells assessed as cell growth inhibition at 10 uM by SRB assay; type: functional, cell-based
# HL-60 = assay: Antiproliferative activity against human HL-60 cells assessed as cell growth inhibition at 10 uM by SRB assay; type: functional, cell-based
# K562 = assay: Antiproliferative activity against human K562 cells assessed as cell growth inhibition at 10 uM by SRB assay; type: functional, cell-based
# MOLT-4 = assay: Antiproliferative activity against human MOLT-4 cells assessed as cell growth inhibition at 10 uM by SRB assay; type: functional, cell-based
# RPMI-8226 = assay: Antiproliferative activity against human RPMI-8226 cells assessed as cell growth inhibition at 10 uM by SRB assay; type: functional, cell-based
# SR = assay: Antiproliferative activity against human SR cells assessed as cell growth inhibition at 10 uM by SRB assay; type: functional, cell-based
# EKVX = assay: Antiproliferative activity against human EKVX cells assessed as cell growth inhibition at 10 uM by SRB assay; type: functional
# HOP-92 = assay: Antiproliferative activity against human HOP-92 cells assessed as cell growth inhibition at 10 uM by SRB assay; type: functional, cell-based
# NCI-H226 = assay: Antiproliferative activity against human NCI-H226 cells assessed as cell growth inhibition at 10 uM by SRB assay; type: functional
# NCI-H23 = assay: Antiproliferative activity against human NCI-H23 cells assessed as cell growth inhibition at 10 uM by SRB assay; type: functional
# NCI-H522 = assay: Antiproliferative activity against human NCI-H522 cells assessed as cell growth inhibition at 10 uM by SRB assay; type: functional, cell-based
# SF-295 = assay: Antiproliferative activity against human SF-295 cells assessed as cell growth inhibition at 10 uM by SRB assay; type: functional, cell-based
# SK-MEL-2 = assay: Antiproliferative activity against human SK-MEL-2 cells assessed as cell growth inhibition at 10 uM by SRB assay relative to control; type: functional; conditions: Homo sapiens, SK-MEL-2, dose 10 µM
# UO-31 = assay: Antiproliferative activity against human UO-31 cells assessed as inhibition of cell growth at 10 uM by SRB assay relative to control; type: functional
# Hs-578T = assay: Antiproliferative activity against human Hs-578T cells assessed as inhibition of cell growth at 10 uM by SRB assay; type: functional, cell-based
# A549 = assay: Antiproliferative activity against human A549 cells assessed as cell growth inhibition at 10 uM by SRB assay; type: functional, cell-based
# HOP-62 = assay: Antiproliferative activity against human HOP-62 cells assessed as cell growth inhibition at 10 uM by SRB assay; type: functional, cell-based
# NCI-H322M = assay: Antiproliferative activity against human NCI-H322M cells assessed as cell growth inhibition at 10 uM by SRB assay; type: functional, cell-based
# NCI-H460 = assay: Antiproliferative activity against human NCI-H460 cells assessed as cell growth inhibition at 10 uM by SRB assay; type: functional, cell-based
# RXF 393 = assay: Antiproliferative activity against human RXF 393 cells assessed as inhibition of cell growth at 10 uM by SRB assay relative to control; type: functional
# 786-0 = assay: Antiproliferative activity against human 786-0 cells assessed as inhibition of cell growth at 10 uM by SRB assay relative to control; type: functional
# UACC-257 = assay: Antiproliferative activity against human UACC-257 cells assessed as cell growth inhibition at 10 uM by SRB assay relative to control; type: functional
# UACC-62 = assay: Antiproliferative activity against human UACC-62 cells assessed as cell growth inhibition at 10 uM by SRB assay relative to control; type: functional
Compound,inhibition (CCRF-CEM),inhibition (HL-60),inhibition (K562),inhibition (MOLT-4),inhibition (RPMI-8226),inhibition (SR),inhibition at 10 µM (EKVX) [%],inhibition (HOP-92),inhibition at 10 µM (NCI-H226) [%],inhibition at 10 µM (NCI-H23) [%],inhibition (NCI-H522),inhibition (SF-295),inhibition at 10 µM (SK-MEL-2) [%],inhibition (UO-31),inhibition (Hs-578T),further results
COc1cc2oc(-c3cccc(NC(=O)c4cccc(C#N)c4)c3)cc(=O)c2c(OC)c1OC,Active,Active,Active,Active,Active,Active,< 50,Active,< 50,< 50,Active,Active,≤ 46,Active,Active,–
COc1cc2oc(-c3ccc(NC(=O)c4cccc(Br)c4)cc3)cc(=O)c2c(OC)c1OC,Active,Active,Active,Active,Active,Active,< 50,Active,< 50,< 50,Active,Active,–,Active,Active,–
COc1cc2oc(-c3ccc(NC(=O)c4ccc(Br)cc4)cc3)cc(=O)c2c(OC)c1OC,inactive,inactive,inactive,inactive,inactive,inactive,< 50,Active,< 50,< 50,Active,Active,–,Active,Active,–
COc1cc2oc(-c3cccc(NC(=O)c4ccccc4Br)c3)cc(=O)c2c(OC)c1OC,Active,Active,Active,Active,Active,Active,< 50,Active,< 50,< 50,Active,Active,≤ 46,Active,Active,–
COc1cc2oc(-c3cccc(C(=O)Nc4ccc(Br)cc4)c3)cc(=O)c2c(OC)c1OC,Active,Active,Active,Active,Active,Active,–,Active,–,–,Active,–,–,–,–,inhibition (A549): Active; inhibition (EKVX): Active; inhibition (HOP-62): Active; inhibition (NCI-H226): Active; inhibition (NCI-H23): Active; inhibition (NCI-H322M): Active; inhibition (NCI-H460): Active; inhibition (RXF 393): Active
COC(=O)c1ccc(C(=O)Nc2cccc(-c3cc(=O)c4c(OC)c(OC)c(OC)cc4o3)c2)cc1,Active,Active,Active,Active,Active,Active,< 50,Active,< 50,< 50,Active,Active,≤ 46,Active,Active,–
COc1cc2oc(-c3cccc(NC(=O)c4ccc(C(F)(F)F)cc4)c3)cc(=O)c2c(OC)c1OC,Active,Active,Active,Active,Active,Active,< 50,Active,< 50,< 50,Active,Active,≤ 46,Active,Active,–
COc1cc2oc(-c3ccc(NC(=O)c4ccc(C#N)cc4)cc3)cc(=O)c2c(OC)c1OC,–,–,–,–,–,–,< 50,Active,< 50,< 50,Active,Active,–,Active,Active,–
CNC(=O)c1cc(Oc2ccc(NC(=O)Nc3ccc(Cl)c(C(F)(F)F)c3)cc2)ccn1 [SORAFENIB],–,–,–,–,–,–,–,–,–,–,–,–,–,–,–,inhibition at 10 µM (786-0): 84.5%
COC(=O)c1ccc(C(=O)Nc2ccc(-c3cc(=O)c4c(OC)c(OC)c(OC)cc4o3)cc2)cc1,–,–,–,–,–,–,< 50,Active,< 50,< 50,Active,Active,–,Active,Active,–
COc1cc2oc(-c3ccc(NC(=O)c4ccc([N+](=O)[O-])cc4)cc3)cc(=O)c2c(OC)c1OC,–,–,–,–,–,–,< 50,Active,< 50,< 50,Active,Active,–,Active,Active,–
COc1cc2oc(-c3cccc(NC(=O)c4ccc(C)cc4)c3)cc(=O)c2c(OC)c1OC,Active,Active,Active,Active,Active,Active,< 50,Active,< 50,< 50,Active,Active,≤ 46,Active,Active,inhibition at 10 µM (UACC-257): 56.1%; inhibition at 10 µM (UACC-62): 50.8%
COc1cc2oc(-c3cccc(C(=O)Nc4ccc(C#N)cc4)c3)cc(=O)c2c(OC)c1OC,–,–,–,–,–,–,–,Active,–,–,Active,–,–,–,–,inhibition (A549): Active; inhibition (EKVX): Active; inhibition (HOP-62): Active; inhibition (NCI-H226): Active; inhibition (NCI-H23): Active; inhibition (NCI-H322M): Active; inhibition (NCI-H460): Active
COc1cc2oc(-c3ccc(NC(=O)c4cccc(C#N)c4)cc3)cc(=O)c2c(OC)c1OC,Active,Active,Active,Active,Active,Active,< 50,Active,< 50,< 50,Active,Active,–,Active,Active,–
COc1cc2oc(-c3cccc(NC(=O)c4ccc(C#N)cc4)c3)cc(=O)c2c(OC)c1OC,Active,Active,Active,Active,Active,Active,< 50,Active,< 50,< 50,Active,Active,≤ 46,Active,Active,inhibition (A549): Active; inhibition (EKVX): Active; inhibition (HOP-62): Active; inhibition (NCI-H226): Active; inhibition (NCI-H23): Active; inhibition (NCI-H322M): Active; inhibition (NCI-H460): Active
